# In patent US11591574B2, “Optical-quality surface that imparts spatial control of macrophage fusion” (ARIZONA BOARD OF REGENTS ON BEHALF OF ARIZONA STATE …, priority 2016, dated 2023):
# “Also recorded” adds a separate entry of the source.
# Tested on: macrophages
# Assay: IL-4-induced macrophage fusion (fusion index)
# Format: cell-based, mouse
# Procedure: To test the rates of cell fusion on the above described glass slides with a pattern surface, monocytes or macrophages are collected according to standard protocols and applied to hydrocarbon chain surface. After 30 minutes, the cultures are washed 3 times rapidly with phosphate-buffered saline to remove unbound cells, and complete cell culture medium (DMEM:F12, 10% FBS, 1% antibiotics) is applied to the culture for about 2 hours. After about 2 hours, about 10 ng/ml of interleukin-4 is applied to the culture to induce fusion and the culture is incubated until the respective time point.
# Macrophages were isolated from the mouse peritoneum 72 hr after injection of a sterile 4% solution of Brewer's thioglycollate (Sigma Aldrich, St. Louis, Mo.). […] Immediately following euthanasia, 5 mL of an ice-cold solution of phosphate-buffered saline (PBS, pH 7.4) supplemented with 5 mM EDTA was injected aseptically into the peritoneum, the lavage containing cells was collected, and the cells were counted with a Neubauer hemocytometer. […]
# Peritoneal lavage cells were applied to various surfaces at a concentration of 2,000 cells/mm2 and incubated in 5% CO2 at 37° C. for 30 min. […] The extent of MGCs formation was evaluated by determining the fusion index. […] Three to 5 bright field images collected at 20× objective magnification were analyzed per specimen.
structure (smiles),measurement,setting,value
CCCCCCCC/C=C\CCCCCCCC(N)=O [oleamide],increase in fusion versus clean glass,adsorption onto clean glass,~4 fold
same,level of macrophage fusion,"hydrocarbon deposited on optical-quality glass, IL-4 induced",high-levels; also recorded: high levels
